Consider 16 molecules from patent publication EP0592600B1, “PROTEINS S POLYPEPTIDES AND USES THEREOF” (THE SCRIPPS RESEARCH INSTITUTE, priority 1991, dated 1993).

For test [1], the target named is T1, PS:C4BP complex (Homo sapiens, UniProt P04003+P20851).
T1 construct: Purified human C4BP was obtained from 5 liters (1) of human citrated plasma; from tissue; host or cells: human citrated plasma (C4BP); protein S per Schwarz et al
T1 sequence (P04003 49-597): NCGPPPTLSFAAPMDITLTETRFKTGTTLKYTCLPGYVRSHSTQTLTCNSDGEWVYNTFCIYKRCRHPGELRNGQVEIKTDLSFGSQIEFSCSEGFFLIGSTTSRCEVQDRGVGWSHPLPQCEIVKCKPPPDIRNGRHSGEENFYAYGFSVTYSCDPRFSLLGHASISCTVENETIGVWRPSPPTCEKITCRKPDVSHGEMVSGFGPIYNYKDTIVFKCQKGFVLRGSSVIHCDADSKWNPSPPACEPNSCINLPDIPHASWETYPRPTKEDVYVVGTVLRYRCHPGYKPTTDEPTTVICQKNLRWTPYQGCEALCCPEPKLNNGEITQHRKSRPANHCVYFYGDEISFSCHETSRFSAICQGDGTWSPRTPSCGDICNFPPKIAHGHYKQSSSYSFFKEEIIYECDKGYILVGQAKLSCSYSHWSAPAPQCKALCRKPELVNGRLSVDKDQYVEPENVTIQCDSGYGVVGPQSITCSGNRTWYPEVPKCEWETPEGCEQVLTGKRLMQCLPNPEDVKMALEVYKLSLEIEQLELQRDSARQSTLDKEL
T1 sequence (P20851 18-252): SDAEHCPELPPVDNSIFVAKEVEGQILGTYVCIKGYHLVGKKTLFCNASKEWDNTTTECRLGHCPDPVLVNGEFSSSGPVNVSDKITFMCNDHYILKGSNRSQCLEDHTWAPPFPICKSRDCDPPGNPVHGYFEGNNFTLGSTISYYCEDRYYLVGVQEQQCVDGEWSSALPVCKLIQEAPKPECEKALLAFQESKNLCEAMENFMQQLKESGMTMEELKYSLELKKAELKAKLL
The test can be described thus: Peptide Inhibition Assay: binding of b-PS to C4BP in solid phase. The note with it: peptide concentration of 800 µM; read-out: percent inhibition of PS:C4BP complex formation. Here is the method:
Each of the peptides produced as described in Example 1 and listed in Table 1 was analyzed for its ability to inhibit the binding of native protein S in liquid-phase to C4BP in solid-phase.
Microtiter wells of a 96 well plate were coated with 50 µl of 10 µg/ml purified C4BP in carbonate buffer (0.02 M Na2CO3, pH 9.0, 0.02% Na-Azide). After blocking with 10% BSA in TBS, 50 µl of different concentrations of peptides diluted in washing buffer (TBS, 0.2% BSA, 5mM CaCl, 0.02% Tween 20) were separately admixed to C4BP-coated wells. After 2 hours at room temperature, 50 µl of a solution of biotinylated protein S, were admixed to each well to form a second binding admixture having a final concentration of 2 µg/ml. The plate was agitated and the samples were incubated 1 hour at room temperature. The samples were discarded and the wells were washed 3 times with washing buffer. To each well, 50 µl of strepavidin-alkaline-phosphatase (1 µg/ml washing buffer) were admixed and allowed to incubate for 30 minutes at room temperature. The strepavidin-alkaline-phosphatase was then discarded and the wells were washed 6 times with washing buffer. The resulting optical densities of the reaction solutions were read as described before in Example 2C.
Results of the assay are reported as percent inhibition of C4BP binding. Percent of inhibition of C4BP binding is defined as: I = 100% - 100 x (deltaT /deltaC ) [formula] • where I is expressed as a percent; and • where 100% = delta/min of the amount of b-PS which specifically bound to C4BP-coated wells in the absence of any competing PS-peptide; and • where deltaT = the change in absorbance (405 nm) in the presence of competing PS-peptide; and • where deltaC = the change in absorbance (405 nm) in the absence of competing PS-peptide.

The target in test [2] is T1, PS:C4BP complex. The test can be described thus: Peptide inhibition of binding of b-C4BP to PS-coated wells. Conditions: b-C4BP 1 µg/ml, PS-coated wells, peptide 0 - 500 µM; for IC90: read-out: IC90; for IC50: read-out: half-maximal inhibitory concentration (IC50). Here is the method: An alternative approach was used to test the ability of the peptides, PSP-loop and PSP-428K, in comparison with that seen with the PSP-12 peptide, in inhibiting the binding of C4BP to PS. For this assay, the microtiter wells were coated with purified PS diluted to a concentration of 10 µg/ml in carbonate-coating buffer as described above. The wells were maintained to allow the PS to bind to the well walls. After the maintenance period, the wells were blocked also as described above. The selected PSP peptides were separately admixed at various concentrations ranging from 0 - 500 µM with biotinylated-C4BP (b-C4BP) at a concentration of 1 µg/ml. The admixtures were maintained on a fluid phase plate for 2 hours at room temperature to form peptide-C4BP complexes.
Fifty µl of the complexed admixtures were separately admixed to the prepared C4BP-coated wells and maintained for 1 hour at room temperature. Thereafter, the plate was washed and processed for developing as described above.

The target in test [3] is T1, PS:C4BP complex. The test can be described thus: Fluid-phase peptide inhibition of PS binding to b-C4BP, detected on MAb S-7-coated plates. Conditions: b-C4BP 0.5 µg/ml, PS 1.0 µg/ml, peptide 0 - 500 µM. The method, then:
An alternative approach was used to test the ability of the peptides, PSP-loop, PSP-424K and PSP-428K, in comparison with that seen with the PSP-12 peptide, in inhibiting the binding of PS to C4BP, the result of which was detected on monoclonal antibody-coated plates. For this assay, biotinylated-C4BP (b-C4BP), PS and PSP peptides were admixed together at the respective concentrations of 0.5 µg/ml, 1.0 µg/ml and at a range of 0 - 500 µM (V:V:V). The admixtures were maintained for 2 hours at room temperature on a fluid phase plate to allow the binding and/or inhibition thereof of PS to C4BP by the PS-derived peptides. After the maintenance period, 50 µl of the admixture were separately admixed to wells previously coated with 10 µg/ml of MAb S-7 (ATCC No. HB 80819). The admixtures were maintained for 1 hour at room temperature to allow for the binding of C4BP to MAb S-7-antibody-coated plates. The binding of biotinylated complexes to the antibody-coated plates was detected as described in Example 5Aii.

Test [4] concerns the target T2, C4b binding protein (human, UniProt P04003 49-597; P20851 18-252).
T2 construct: mature; The beta chain is added from general knowledge; Biotinylated (b-C4BP) in some assays; also called C4BP; purified human C4BP
T2 sequence (looked up) 1: T1 sequence (P04003 49-597)
T2 sequence (looked up) 2: T1 sequence (P20851 18-252)
Kind of test: Competition ELISA, peptide 800 µM on coated C4BP, then b-PS.

Test [5] concerns the target T2, C4b binding protein. Kind of test: Competition ELISA, peptide preincubated with b-C4BP, PS-coated wells. Background: In an ELISA, binding on a coated surface is turned into a signal by an enzyme label.

Ends that are not written are not given here. Peptide text beside a SMILES is read from it.

What is called inhibition is the drop in the measured response relative to a control, in per cent. Usually IC90 stands for the concentration at which the effect reaches the 90% level. Turning to `CC[C@H](C)[C@H](NC(=O)CNC(=O)[C@@H](N)CO)C(=O)N[C@@H](CCCCN)C(=O)N[C@@H](CCC(=O)O)C(=O)N[C@H](C(=O)N[C@H](C(=O)N[C@@H](CCC(N)=O)C(=O)N[C@@H](CCC(=O)O)C(=O)N[C@@H](CCCCN)C(=O)N[C@@H](CCC(N)=O)C(=O)N[C@@H](CC(N)=O)C(=O)N[C@@H](CCCCN)C(=O)N[C@@H](Cc1c[nH]cn1)C(=O)N[C@@H](CS)C(N)=O)[C@@H](C)CC)[C@@H](C)CC` [PSP-12] (H-SGIKEIIQEKQNKHC-NH2; N-terminus assumed), in test [1], the inhibition at 800 µM worked out at 80%. The IC90 in test [2] and in test [3] (read-out: IC90) was around 250 µM throughout. The IC50 in test [2] and in test [3] was around 50 µM in each case.

In the case of `CC[C@H](C)[C@H](NC(=O)CNC(=O)[C@H](CO)NC(=O)[C@H](C)NC(=O)CNC(=O)[C@@H](N)CCC(N)=O)C(=O)N[C@@H](CCCCN)C(=O)N[C@@H](CCC(=O)O)C(N)=O` [PSP-417A] (H-QGASGIKE-NH2), the inhibition at 800 µM in test [1] was around 80%.

`CC[C@H](C)[C@H](NC(=O)CNC(=O)[C@H](CO)NC(=O)[C@H](C)NC(=O)CNC(=O)[C@H](CCC(N)=O)NC(=O)[C@H](CCCCN)NC(=O)[C@H](CCSC)NC(=O)[C@H](CC(C)C)NC(=O)[C@@H](N)CC(N)=O)C(=O)N[C@@H](CCCCN)C(=O)N[C@@H](CCC(=O)O)C(N)=O` [PSP-417P] (H-NLMKQGASGIKE-NH2): in test [1], the inhibition at 800 µM was around 60%.

`CC[C@H](C)[C@H](NC(=O)CNC(=O)[C@H](CO)NC(=O)[C@H](C)NC(=O)CNC(=O)[C@H](CCC(N)=O)NC(=O)[C@H](CCCCN)NC(=O)[C@H](CCSC)NC(=O)[C@H](CC(C)C)NC(=O)[C@@H](N)CC(N)=O)C(N)=O` [PSP-417] (H-NLMKQGASGI-NH2): in test [1], the inhibition at 800 µM was around 60%.

On to `CC[C@H](C)[C@H](NC(=O)CN)C(=O)N[C@@H](CCCCN)C(=O)N[C@@H](CCC(=O)O)C(=O)N[C@H](C(=O)N[C@H](C(=O)N[C@@H](CCC(N)=O)C(N)=O)[C@@H](C)CC)[C@@H](C)CC` [PSP-424, GIKEIIQ] (H-GIKEIIQ-NH2), for which the inhibition at 800 µM in test [1] turned out to be 40%.

Consider `CC[C@H](C)[C@H](NC(=O)[C@H](CCC(=O)O)NC(=O)[C@@H](N)CCCCN)C(=O)N[C@H](C(=O)N[C@@H](CCC(N)=O)C(=O)N[C@@H](CCC(=O)O)C(=O)N[C@@H](CCCCN)C(=O)N[C@@H](CCC(N)=O)C(=O)N[C@@H](CC(N)=O)C(=O)N[C@@H](CCCCN)C(=O)N[C@@H](Cc1c[nH]cn1)C(=O)N[C@@H](CO)C(N)=O)[C@@H](C)CC` [PSP-428*, KEIIQEKQNKHS] (H-KEIIQEKQNKHS-NH2), for which the inhibition at 800 µM in test [1] is around 60%.

`CC[C@H](C)[C@H](NC(=O)CNC(=O)[C@@H](N)CO)C(=O)N[C@@H](CCCCN)C(=O)N[C@@H](CCC(=O)O)C(=O)N[C@H](C(=O)N[C@H](C(=O)N[C@@H](CCC(N)=O)C(=O)N[C@@H](CCCCN)C(=O)N[C@@H](CCCCN)C(=O)N[C@@H](CCC(N)=O)C(=O)N[C@@H](CC(N)=O)C(=O)N[C@@H](CCCCN)C(=O)N[C@@H](CS)C(N)=O)[C@@H](C)CC)[C@@H](C)CC` [PSP-428K, SGIKEIIQKKQNKC] (H-SGIKEIIQKKQNKC-NH2): in test [2], the IC90 was around 250 µM and the IC50 was around 50 µM.

On to `NCCCC[C@H](NC(=O)[C@H](CC(N)=O)NC(=O)[C@H](CCC(N)=O)NC(=O)[C@H](CCCCN)NC(=O)[C@H](CCC(=O)O)NC(=O)[C@@H](N)CCC(N)=O)C(=O)N[C@@H](Cc1c[nH]cn1)C(=O)N[C@@H](CO)C(N)=O` [PSP-430*] (H-QEKQNKHS-NH2), for which the inhibition at 800 µM in test [1] is around 80%.

The molecule GIKEIIQ-NH2 [PSP-424] registered a % inhibition of PS:C4BP complex formation in test [4] of 40%.

QEKQNKHS-NH2 [PSP-430*] returned a % inhibition of PS:C4BP complex formation in test [4] of 80%.

As for NLMKQGASGIKE-NH2 [PSP-417P], the % inhibition of PS:C4BP complex formation in test [4] was 60%.

In test [4], NLMKQGASGI-NH2 [PSP-417] came in with a % inhibition of PS:C4BP complex formation of 60%.

In test [5], SGIKEIIQEKQNKHC-NH2 (also: biotinylated form b-PSP-12 also used, also called b-PSP-12 (biotinylated)) [PSP-12] showed an IC50 of around 50 µM and an IC90 of around 250 µM.

The molecule QGASGIKE-NH2 [PSP-417A] gave a % inhibition of PS:C4BP complex formation in test [4] of 80%.

In test [4], KEIIQEKQNKHS-NH2 [PSP-428*] came in with a % inhibition of PS:C4BP complex formation of 60%.

B1: PSP-428K* (peptide)
peptide: SGIKEIIQKKQNKC-NH2
notes: protein S 420-432,434 with a substitution
For the molecule B1, the IC90 in test [5] is around 250 µM.
